From patent US4981690A, “Liposome-incorporated mepartricin” (priority 1987, dated 1991)
Where two headings read alike, the source gives them in different places.

Legend:
[1] = water, cited from earlier work
HTLV-III/LAV = conditions: H9 cells; Schaffner et al. 1986; cited from earlier work
human red blood cells = assay: Lysis of human red blood cells (hemoglobin release at 550 nm); type: cell-based; conditions: SLS present in F-SPA-222
Protocol: The human RBCs were incubated at 37° C. for 45 min. with ( X) free-SPA-222, (Δ) sodium lauryl sulfate, ( .circle. ) free SPA-160, ( .circle. ) liposomal SPA-160 (L-SPA-160) in liposomes composed of DMPC:DMPG (7:3), ( ) L-SPA-160 in liposomes composed of DMPC:DMPG+cholesterol (9:1) or ( ) L-SPA-160 in liposomes composed of DMPC:DMPG+ergosterol (9:1)
Lysis of human red blood cells (HRBCs) was quantitated by measuring the release of hemoglobin in the supernatants at 550 nm, as described previously (Mehta et al., Biochim. Biophys, Acta., Vol. 770, pp. 230-234 (1984)). Various doses of L-SPA were incubated with fresh washed human RBCs at 37° C. for 45 minutes,24 hr, 48 hr and 96 hr.
Lysis of HRBCs was quantitated by measuring the release of hemoglobin in the supernatants at 550 nm as previously described (Mehta et al., (1984) Biochem. Biophys. Acts, 770:230). Various doses of L-SPA-160 were incubated with fresh washed HRBCs at 37° C. for 45 minutes, 24, 48 and 96 hrs. Free-SPA-222, stock dissolved in water and diluted with isotonic PBS was added to the assay. F-SPA-160 as DMFA solution diluted with isotonic PBS was also used as a control and contained 3% DMFA at a final concentration of drug at 300 ug ml. Appropriate solvent controls and empty liposomes were also included in each experiment. […]

[2] = compared with partricin; cited from earlier work

Row | Compound | Aqueous solubility (in words) [1] | Inhibition of HTLV-III/LAV replication (in words) (HTLV-III/LAV) | also measured
1 | C[C@@H]1[C@H](O)[C@@H](C)/C=C/C=C/C=C/C=C/C=C/C=C/C=C/[C@H](O[C@@H]2O[C@H](C)[C@@H](O)[C@H](N)[C@@H]2O)C[C@@H]2O[C@](O)(C[C@@H](O)C[C@@H](O)[C@H](O)CC[C@@H](O)C[C@@H](O)CC(=O)O[C@H]1C)C[C@H](O)[C@H]2C(=O)O [Amphotericin B] | insoluble in water | inhibited | –
2 | COC(=O)[C@H]1[C@@H]2C[C@@H](O[C@@H]3O[C@H](C)[C@@H](O)[C@H](N)[C@@H]3O)/C=C/C=C/C=C/C=C/C=C/C=C/C=C/[C@H](C)[C@@H](O)[C@@H](C)[C@H](C)OC(=O)C[C@H](O)C[C@H](O)CC[C@@H](O)[C@H](O)C[C@H](O)C[C@](O)(C[C@@H]1O)O2 [amphotericin B methyl ester ascorbate] | – | inhibited | –
3 | C[C@@H]1[C@H](O)[C@@H](C)/C=C/C=C/CC/C=C/C=C/C=C/C=C/C(O[C@H]2O[C@H](C)[C@@H](O)[C@H](N)[C@@H]2O)CC2O[C@](O)(CC(O)C(O)CCC(O)CC(O)CC(O)CC(=O)O[C@H]1C)CC(O)C2C(=O)O (some centres unmarked) [Nystatin] | aqueous insolubility | – | –
4 | CCCCCCCCCCCCOS(=O)(=O)[O-].[Na+] [SLS, sodium lauryl sulphate] | – | – | Share of F-SPA-222 RBC toxicity associated with SLS (human red blood cells): Fifty percent
5 | Mepartricin | low aqueous solubility | – | Aqueous solubility (in words) ([1]; listed as mepartricin): substantially water-insoluble; Toxicity to animals relative to partricin (in words) [2]: much less toxic to animals than partricin
